Data on twelve compounds can be found in patent publication US11840499B2, “Biobased-fatty acid arginates” (priority 2020, dated 2023).

Read-outs that look alike come from different tables or passages of the source.

Series [1] deals with Gram-positive Listeria innocua (ATCC 33090). The series is described as follows: Antimicrobial activity (MIC/MBC) against Listeria innocua. In kind it is cell-based. The method, then: (§1) Antimicrobial activity studies were performed using standard methods. For all compounds, at least 3 independent replicates of quadruplicate tests were conducted. The minimum inhibitory concentration (MIC) was determined as the lowest test compound concentration for which no color change (no active growth) occurred. Minimum bactericidal concentration (MBC) was determined by spreading 100 μl from each growth-negative well onto TSA and incubating at 37° C. for 24 h. MBC was the […] where no viable growth occurred.

For series [2], the system named is Gram-negative Escherichia coli (ATCC 700728). Kind of series: microbe, parasite or virus in culture. In kind it is cell-based. To be noted: for MIC / MBC: E. coli; for MIC: lowest concentration with no color change (no active growth); for MBC: no viable growth on TSA, 37° C., 24 h. The method, then: as §1
Series [3] is described as follows: Surfactant properties: surface tension by drop image method, CMC. In kind it is physicochemical. The settings on record: aqueous solution. The procedure: Samples of the analyte were weighed and dissolved in distilled water to make a 10 mM stock solution. The stock solution was then subsequently diluted to make 5 mM, 1 mM, 0.5 mM, 0.25 mM, 0.125 mM, and 0.0625 mM solutions. The series of solutions were used to measure the surface tension using a drop image method with a surface tension instrument. Measurement for each sample was done in triplicate and the average value was calculated. Critical micelle concentration (CMC) is the concentration above which micelles form in the surfactant solution.

The mark [4] stands for this setting: L. innocua, lowest concentration with no color change (no active growth).
The mark [5] stands for this setting: L. innocua, no viable growth on TSA, 37° C., 24 h.
The mark [6] stands for this setting: Escherichia coli, ATCC700728, read-out: MIC.
The mark [7] stands for this setting: Escherichia coli, ATCC700728, read-out: MBC.
The mark [8] stands for this setting: Listeria innocua, ATCC33090, 24 h.

Soy thymol arginate: the MIC is 3.6 ppm in series [1] (setting [4]) and above 232.7 ppm in series [2]. Further, the MBC in series [1] (setting [5]) is 14.5 ppm; in series [2] it was above 232.7 ppm.

`CCCCCCCCCCCC(=O)N[C@@H](CCCNC(=N)N)C(=O)OCC.Cl` [Ethyl lauroyl arginate, ethyl-N^α-lauroyl-L-arginate HCl, reference compound]: the MIC in series [1] (Listeria innocua, ATCC33090, L. innocua, lowest concentration with no color change (no active growth), read-out: MIC) came out at 7.3 µg/mL; in series [2] (setting [6]), 7.3 µg/mL. For the same compound, the MBC in series [1] (Listeria innocua, ATCC33090, L. innocua, no viable growth on TSA, 37° C., 24 h, read-out: MBC) was 14.5 µg/mL; in series [2] (setting [7]), 7.3 µg/mL.

`CCCCCCCC/C=C\CCCCCCCC(=O)O` [Oleic acid]: the MIC in series [1] (setting [4]) was above 232.7 ppm; in series [1] (Listeria innocua, ATCC33090), above 233 µg/mL; in series [2] (setting [6]) it was above 233 µg/mL. In addition, the MBC in series [1] (setting [5]) is above 232.7 ppm; in series [1] (setting [8]) it was above 233 µg/mL; in series [2] (setting [7]) it was above 233 µg/mL.

On to `CCCCCCCC/C=C\CCCCCCCC(=O)N[C@@H](CCCNC(=N)N)C(=O)OCC` [Oleic arginate], for which the MIC in series [1] (setting [4]) is listed as 3.6 ppm; in series [2], 116.4 ppm. For the same compound, the results for the MBC in series [1] (setting [5]) and in series [2] were 3.6 ppm and 116.4 ppm, respectively. Further, in series [2] (Escherichia coli (ATCC 700728)), the “antimicrobial activity (in words)” value is “weak activity”.

For the compound Oleic phenol arginate, the MIC in series [1] (setting [4]) is 1.2 ppm; in series [2], above 232.7 ppm. Further, the results for the MBC in series [1] (setting [5]) and in series [2] were 5.0 ppm and above 232.7 ppm, respectively.

Regarding `CCCCCCCCCCCCCCCCCC(=O)N[C@@H](CCCNC(=N)N)C(=O)OCC` [Stearic arginate], the MIC in series [1] (setting [4]) is on record as 14.5 ppm; in series [2] it was above 232.7 ppm. For the same compound, the MBC in series [1] (setting [5]) was 29.1 ppm; in series [2] it was above 232.7 ppm.

In the case of Isostearic arginate, the MIC in series [1] (setting [4]) is recorded as 3.6 ppm; in series [2], above 232.7 ppm. For the same compound, the MBC in series [1] (setting [5]) is recorded as 7.3 ppm; in series [2] it was above 232.7 ppm.

On to `CCOC(=O)[C@@H](N)CCCNC(=N)N.Cl.Cl` [L-arginine ethyl ester dihydrochloride], for which the MIC was above 233 µg/mL in series [1] (Listeria innocua, ATCC33090) and above 233 µg/mL in series [2] (setting [6]). In addition, the MBC in series [1] (setting [8]) and in series [2] (setting [7]) was above 233 µg/mL each time.

In the case of `N=C(N)NCCC[C@H](N)C(=O)O` [L-arginine (commercial), L-arginine], the MIC was above 232.7 ppm in series [1] (setting [4]); above 233 µg/mL in series [1] (Listeria innocua, ATCC33090); above 233 µg/mL in series [2] (setting [6]). Besides, the MBC is above 232.7 ppm in series [1] (setting [5]), above 233 µg/mL in series [1] (setting [8]) and above 233 µg/mL in series [2] (setting [7]).

Turning to Isooleic arginate, the values for the MIC in series [1] (setting [4]) and in series [2] were 1.8 ppm and above 232.7 ppm, respectively. Moreover, the MBC in series [1] (setting [5]) is reported as 1.8 ppm; in series [2] it was above 232.7 ppm.

On to `CCCCCCCCCCCCOS(=O)(=O)[O-].[Na+]` [SDS], for which, in series [3], the “critical micelle concentration (CMC), compared to LAE” value is “much higher”. Further, the “surface tension level reached with increasing surfactant concentration” value in series [3] (0.0625-10 mM) is 38 mN/m.

For the compound Isooleic acid, the MIC in series [1] (setting [4]) and in series [2] was above 232.7 ppm throughout. The MBC in series [1] (setting [5]) and in series [2] was above 232.7 ppm each time.
